Values of other authors as cited in patent publication US20010036658A1, “Culture media for growing spirochetes” (priority 1997, published 2001).
Like-named read-outs stand apart in the source and are kept apart here.

Assays:
[1] = tested on: L-forms of bacteria
[2] = tested on: erythrocytes

COc1cccc2c1C(=O)c1c(O)c3c(c(O)c1C2=O)C[C@@](O)(C(=O)CO)C[C@@H]3O[C@H]1C[C@H](N)[C@H](O)[C@H](C)O1 [doxorubicin]
anti-bacterial activity ([1]; certain L-forms of bacteria): dramatic anti-bacterial activity
anti-bacterial activity ([1]; parent forms of the same bacteria): without any demonstrable effect
conversion of normal erythrocytes to echinocytes [2]: prevents
